Data taken from patent US8986737B2, “Antibiotic microspheres for treatment and prevention of osteomyelitis and enhancement of bone regrowth” (Wm. Marsh Rice University, priority 2002, dated 2015).
Converted amounts (≈) assume the structure as drawn. Where two headings read alike, the source gives them in different places.

System: S. aureus UAMS-1 (ATCC 49230)
Experiment: MIC and MBC determination by standard dilution methods
Assay type: cell-based, Staphylococcus aureus
Procedure: The strain of S. aureus used in this study, UAMS-1, was isolated from a patient with osteomyelitis and deposited at the American Type Culture Collection as strain ATCC 49230. The bacteria were prepared from overnight cultures grown in tryptic soy broth at 37° C. with aeration. Cells were harvested by centrifugation, washed with sterile physiological saline, and resuspended to a final concentration of 2×10^8 CFU/ml (OD of 60% transmittance). Cell suspensions were prepared on the day of surgery and held on ice until implanted.
Minimum inhibitory concentration (MIC) and minimum bactericidal concentration (MBC) for the two antibiotics tested, tobramycin and cefazolin, were determined by standard dilution methods published by the National Committee for Clinical Laboratory Standards. Briefly, S. aureus cells were grown and diluted to 0.5 McFarland turbidity standard, approximately 2×10^8 cells/ml. The cells were mixed with either of the two antibiotics tested, at concentrations ranging from 2 μg/ml to 64 μg/ml. The following day, the cultures were examined for turbidity to allow determination of MIC values. After this, sample clear cultures were plated to determine the MBC, and colonies counts were done the next day.
Minimum inhibitory concentration and minimum bactericidal concentration for tobramycin was determined as previously described above, by standard dilution methods published by the National Committee for Clinical Laboratory Standards.

[1] = Staphylococcus aureus, ATCC49230, read-out: MBC
[2] = Staphylococcus aureus, ATCC49230, read-out: MIC

| MIC [2] [µg/mL] | MIC [µg/mL] | SMILES | MBC [1] [µg/mL] | MBC [µg/mL] |
| --- | --- | --- | --- | --- |
| 2 (≈ 4.4 µM) | – | Cc1nnc(SCC2=C(C(=O)O)N3C(=O)[C@@H](NC(=O)Cn4cnnn4)[C@H]3SC2)s1 [Cefazolin] | 32 (≈ 70.4 µM) | – |
| 4 to 8 (≈ 8.56 to 17.1 µM) | 4 to 8 | NC[C@H]1O[C@H](O[C@H]2[C@H](O)[C@@H](O[C@H]3O[C@H](CO)[C@@H](O)[C@H](N)[C@H]3O)[C@H](N)C[C@@H]2N)[C@H](N)C[C@@H]1O [Tobramycin] | 16 (≈ 34.2 µM) | 16 (≈ 34.2 µM) |
